# Target: T1, Neutrophil elastase (Homo sapiens, UniProt P08246)
# T1 sequence (P08246 whole entry): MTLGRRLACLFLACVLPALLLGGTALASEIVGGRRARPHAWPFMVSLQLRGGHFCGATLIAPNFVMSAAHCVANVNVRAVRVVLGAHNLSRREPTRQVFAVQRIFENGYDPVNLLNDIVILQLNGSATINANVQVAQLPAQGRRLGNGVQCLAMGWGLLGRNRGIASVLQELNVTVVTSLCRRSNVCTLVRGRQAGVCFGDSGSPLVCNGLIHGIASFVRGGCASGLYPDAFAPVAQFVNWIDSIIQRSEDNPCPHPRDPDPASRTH
# Experiment: ChEBML_64294
# Description: Kinetic constant for human neutrophil elastase
row,SMILES,Ki [µM]
1,CC[C@@H](C)/C(NS(=O)(=O)c1ccc(C)cc1)=C(\O)[N]1[C@@H](CCCCNC(=O)C23CC4CC(CC(C4)C2)C3)C(=O)[N]2[C@H](C(=O)N[C@H](C(=O)O)C(C)C)C[S][Re]21=[O] (stereo partly drawn),36.7
2,CC[C@@H](C)/C(NCc1ccccc1)=C(\O)[N]1[C@@H](CCCCNC(=O)C23CC4CC(CC(C4)C2)C3)C(=O)[N]2[C@H](C(=O)N[C@H](C(N)=O)C(C)C)C[S][Re]21=[O] (stereo partly drawn),194
3,CC[C@@H](C)/C(NS(=O)(=O)c1ccc(C)cc1)=C(\O)[N]1[C@@H](CCCCNC(=O)C23CC4CC(CC(C4)C2)C3)C(=O)[N]2[C@H](C(=O)N[C@H](C(N)=O)C(C)C)C[S][Re]21=[O] (stereo partly drawn),133

# From BindingDB's records for doi:10.1016/s0960-894x(99)00217-6 (Palatin Technologies, 1999)
